Reference: JP2016013988A, “エステル化合物” (Mitsubishi Gas Chemical Co Inc, priority 2014, dated 2016)

Test: APHA (colour number) of the purified diester
Type: physicochemical
Settings: after KOH/water washing, removal of acid under reduced pressure and activated carbon treatment
Compound `CCCCC(CC)(COCC(C)(C)COC(=O)C(C)(C)C)COC(=O)C(C)(C)C` (stereo not drawn) [実施例1, ジピバリン酸 4−オキサ−2−ブチル−2−エチル−6,6−ジメチルヘプタン−1,7−ジイル] has an APHA of 28. In the case of `CCCC(C)(COCC(C)(C)COC(=O)C(C)(C)C)COC(=O)C(C)(C)C` (stereo not drawn) [実施例2, ジピバリン酸 4−オキサ−2−プロピル−2,6,6−トリメチルヘプタン−1,7−ジイル], the APHA is reported as 27. For `CCCCC(CC)C(=O)OCC(C)(C)COCC(C)(CCC)COC(=O)C(CC)CCCC` (stereo not drawn) [実施例4, ビス(2−エチルへキサン酸) 4−オキサ−2−プロピル−2,6,6−トリメチルヘプタン−1,7−ジイル], the APHA was 22.
